Tests used:
Format in all cases: in vivo
[1] = tested on: Echinochloa grus galli (ECHCG); experiment: Pre-emergence herbicidal evaluation, barnyard grass
Outline: (§1)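 Rating done 2–4 weeks post-treatment in the greenhouse. Compound, in aqueous acetone, was sprayed onto soil surface right after sowing, at rates equivalent to about 0.0125–0.4 kg per hectare, before crop or weed emergence.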

Lamium purpureum (LAMPU) [2] = experiment: Post-emergence herbicidal evaluation, purple deadnettle; settings: rated 2 to 4 weeks after treatment
Outline: (§2)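 Post-emergence spray; acetone stock diluted in water; dose ≈0.03–0.4 kg/ha per pot; greenhouse, routine care; visual score at 2–4 wk, 0 = untreated-like, 9 = dead.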

Hordeum vulgare (HORVW) [3] = experiment: Post-emergence herbicidal evaluation, winter barley; settings: rated 2 to 4 weeks after treatment
Outline: as §2

[4] = tested on: Ipomoea hederacea (IPOHE); experiment: Pre-emergence herbicidal evaluation, morning glory
Outline: as §1

Oryza sativum (ORYSA) [5] = experiment: Post-emergence herbicidal evaluation, rice; settings: rated 2 to 4 weeks after treatment
Outline: as §2

[6] = tested on: Triticum aestivum (TRZAW); experiment: Post-emergence herbicidal evaluation, winter wheat; settings: rated 2 to 4 weeks after treatment
Outline: as §2

[7] = tested on: Digitaria sanguinalis (DIGSA); experiment: Post-emergence herbicidal evaluation, large crabgrass; settings: rated 2 to 4 weeks after treatment
Outline: as §2

Lamium purpureum (LAMPU) [8] = experiment: Pre-emergence herbicidal evaluation, purple deadnettle
Outline: as §1

[9] = tested on: Ambrosia artemiisifolia (AMBEL); experiment: Pre-emergence herbicidal evaluation, ragweed
Outline: as §1

Setaria viridis (SETVI) = experiment: Pre-emergence herbicidal evaluation, green foxtail
Outline: as §1

[10] = tested on: Abutilon theophrasti (ABUTH); experiment: Post-emergence herbicidal evaluation, velvetleaf; settings: rated 2 to 4 weeks after treatment
Outline: as §2

Hordeum vulgare (HORVW) [11] = experiment: Pre-emergence herbicidal evaluation, winter barley
Outline: as §1

Solanum nigrum (SOLNI) [12] = experiment: Post-emergence herbicidal evaluation, black nightshade; settings: rated 2 to 4 weeks after treatment
Outline: as §2

Solanum nigrum (SOLNI) [13] = experiment: Pre-emergence herbicidal evaluation, black nightshade
Outline: as §1

[14] = tested on: Alopecurus myosuroides (ALOMY); experiment: Pre-emergence herbicidal evaluation, black grass
Outline: as §1

[15] = tested on: Ipomoea hederacea (IPOHE); experiment: Post-emergence herbicidal evaluation, morning glory; settings: rated 2 to 4 weeks after treatment
Outline: as §2

Oryza sativum (ORYSA) [16] = experiment: Pre-emergence herbicidal evaluation, rice
Outline: as §1

Glycine max (GLXMA) [17] = experiment: Post-emergence herbicidal evaluation, soyabeans; settings: rated 2 to 4 weeks after treatment
Outline: as §2

Glycine max (GLXMA) [18] = experiment: Pre-emergence herbicidal evaluation, soyabeans
Outline: as §1

[19] = tested on: Matricaria inodora (MATIN); experiment: Post-emergence herbicidal evaluation, mayweed; settings: rated 2 to 4 weeks after treatment
Outline: as §2

Zea mays (ZEAMX) [20] = experiment: Post-emergence herbicidal evaluation, maize; settings: rated 2 to 4 weeks after treatment
Outline: as §2

Stellaria media (STEME) = experiment: Post-emergence herbicidal evaluation, chickweed; settings: rated 2 to 4 weeks after treatment
Outline: as §2

[21] = tested on: Echinochloa grus galli (ECHCG); experiment: Post-emergence herbicidal evaluation, barnyard grass; settings: rated 2 to 4 weeks after treatment
Outline: as §2

[22] = tested on: Abutilon theophrasti (ABUTH); experiment: Pre-emergence herbicidal evaluation, velvetleaf
Outline: as §1

[23] = tested on: Matricaria inodora (MATIN); experiment: Pre-emergence herbicidal evaluation, mayweed
Outline: as §1

Zea mays (ZEAMX) [24] = experiment: Pre-emergence herbicidal evaluation, maize
Outline: as §1

Cc1cc(OCC(F)(F)C(F)(F)C(F)(F)C(F)F)nc(Oc2cc(C(F)(F)F)nn2C)c1 [Example 8]
0 (0 - No effect): HORVW rating (Hordeum vulgare (HORVW) [11]; dose 0.013 kg/ha) | ORYSA rating (Oryza sativum (ORYSA) [16]; dose 0.013 kg/ha) | ORYSA rating (Oryza sativum (ORYSA) [16]; dose 0.025 kg/ha) | GLXMA rating (Glycine max (GLXMA) [18]; dose 0.013 kg/ha) | ABUTH rating ([22]; dose 0.013 kg/ha)
7 (7 - Good herbicidal effect): AMBEL rating ([9]; dose 0.025 kg/ha) | ABUTH rating ([10]; dose 0.4 kg/ha) | ALOMY rating ([14]; dose 0.1 kg/ha) | IPOHE rating ([15]; dose 0.03 kg/ha) | GLXMA rating (Glycine max (GLXMA) [17]; dose 0.1 kg/ha) | ABUTH rating ([22]; dose 0.1 kg/ha)
9 (9 - Complete kill): LAMPU rating (Lamium purpureum (LAMPU) [2]; dose 0.4 kg/ha) | IPOHE rating ([4]; dose 0.1 kg/ha) | IPOHE rating ([4]; dose 0.4 kg/ha) | DIGSA rating ([7]; dose 0.1 kg/ha) | DIGSA rating ([7]; dose 0.4 kg/ha) | LAMPU rating (Lamium purpureum (LAMPU) [8]; dose 0.1 kg/ha) | LAMPU rating (Lamium purpureum (LAMPU) [8]; dose 0.4 kg/ha) | SETVI rating (Setaria viridis (SETVI); dose 0.1 kg/ha) | SETVI rating (Setaria viridis (SETVI); dose 0.4 kg/ha) | IPOHE rating ([15]; dose 0.1 kg/ha) | IPOHE rating ([15]; dose 0.4 kg/ha) | MATIN rating ([19]; dose 0.03 kg/ha) | MATIN rating ([19]; dose 0.1 kg/ha) | MATIN rating ([19]; dose 0.4 kg/ha) | ABUTH rating ([22]; dose 0.4 kg/ha) | MATIN rating ([23]; dose 0.1 kg/ha) | MATIN rating ([23]; dose 0.4 kg/ha)
1 (1 - Trace effect): ECHCG rating ([1]; dose 0.013 kg/ha) | ECHCG rating ([1]; dose 0.025 kg/ha) | ORYSA rating (Oryza sativum (ORYSA) [5]; dose 0.03 kg/ha) | SETVI rating (Setaria viridis (SETVI); dose 0.013 kg/ha) | ABUTH rating ([10]; dose 0.03 kg/ha) | HORVW rating (Hordeum vulgare (HORVW) [11]; dose 0.025 kg/ha) | SOLNI rating (Solanum nigrum (SOLNI) [13]; dose 0.013 kg/ha) | ALOMY rating ([14]; dose 0.013 kg/ha) | ALOMY rating ([14]; dose 0.025 kg/ha) | ORYSA rating (Oryza sativum (ORYSA) [16]; dose 0.1 kg/ha) | ORYSA rating (Oryza sativum (ORYSA) [16]; dose 0.4 kg/ha) | GLXMA rating (Glycine max (GLXMA) [18]; dose 0.025 kg/ha) | ZEAMX rating (Zea mays (ZEAMX) [20]; dose 0.03 kg/ha) | ZEAMX rating (Zea mays (ZEAMX) [20]; dose 0.1 kg/ha) | ABUTH rating ([22]; dose 0.025 kg/ha) | ZEAMX rating (Zea mays (ZEAMX) [24]; dose 0.013 kg/ha) | ZEAMX rating (Zea mays (ZEAMX) [24]; dose 0.025 kg/ha) | ZEAMX rating (Zea mays (ZEAMX) [24]; dose 0.1 kg/ha)
5 (5 - Definite injury): AMBEL rating ([9]; dose 0.013 kg/ha) | ABUTH rating ([10]; dose 0.1 kg/ha) | SOLNI rating (Solanum nigrum (SOLNI) [12]; dose 0.1 kg/ha) | GLXMA rating (Glycine max (GLXMA) [17]; dose 0.03 kg/ha) | STEME rating (Stellaria media (STEME); dose 0.1 kg/ha) | ECHCG rating ([21]; dose 0.1 kg/ha)
8 (8 - Approaching complete kill): ECHCG rating ([1]; dose 0.4 kg/ha) | LAMPU rating (Lamium purpureum (LAMPU) [2]; dose 0.03 kg/ha) | LAMPU rating (Lamium purpureum (LAMPU) [2]; dose 0.1 kg/ha) | DIGSA rating ([7]; dose 0.03 kg/ha) | LAMPU rating (Lamium purpureum (LAMPU) [8]; dose 0.013 kg/ha) | LAMPU rating (Lamium purpureum (LAMPU) [8]; dose 0.025 kg/ha) | AMBEL rating ([9]; dose 0.1 kg/ha) | AMBEL rating ([9]; dose 0.4 kg/ha) | SOLNI rating (Solanum nigrum (SOLNI) [12]; dose 0.4 kg/ha) | SOLNI rating (Solanum nigrum (SOLNI) [13]; dose 0.1 kg/ha) | SOLNI rating (Solanum nigrum (SOLNI) [13]; dose 0.4 kg/ha) | ALOMY rating ([14]; dose 0.4 kg/ha) | GLXMA rating (Glycine max (GLXMA) [17]; dose 0.4 kg/ha) | STEME rating (Stellaria media (STEME); dose 0.4 kg/ha) | ECHCG rating ([21]; dose 0.4 kg/ha) | MATIN rating ([23]; dose 0.013 kg/ha) | MATIN rating ([23]; dose 0.025 kg/ha)
3 (3 - Moderate effect): HORVW rating (Hordeum vulgare (HORVW) [3]; dose 0.1 kg/ha) | HORVW rating (Hordeum vulgare (HORVW) [3]; dose 0.4 kg/ha) | TRZAW rating ([6]; dose 0.4 kg/ha) | SETVI rating (Setaria viridis (SETVI); dose 0.025 kg/ha) | HORVW rating (Hordeum vulgare (HORVW) [11]; dose 0.1 kg/ha) | SOLNI rating (Solanum nigrum (SOLNI) [12]; dose 0.03 kg/ha) | SOLNI rating (Solanum nigrum (SOLNI) [13]; dose 0.025 kg/ha) | ZEAMX rating (Zea mays (ZEAMX) [20]; dose 0.4 kg/ha) | STEME rating (Stellaria media (STEME); dose 0.03 kg/ha)
4 (4 - Injury): HORVW rating (Hordeum vulgare (HORVW) [11]; dose 0.4 kg/ha) | GLXMA rating (Glycine max (GLXMA) [18]; dose 0.4 kg/ha)
good selectivity: selectivity in maize (Zea mays (ZEAMX) [24])
6 (6 - Herbicidal effect): ECHCG rating ([1]; dose 0.1 kg/ha)
2 (2 - Slight effect): HORVW rating (Hordeum vulgare (HORVW) [3]; dose 0.03 kg/ha) | IPOHE rating ([4]; dose 0.013 kg/ha) | IPOHE rating ([4]; dose 0.025 kg/ha) | ORYSA rating (Oryza sativum (ORYSA) [5]; dose 0.1 kg/ha) | ORYSA rating (Oryza sativum (ORYSA) [5]; dose 0.4 kg/ha) | TRZAW rating ([6]; dose 0.03 kg/ha) | TRZAW rating ([6]; dose 0.1 kg/ha) | GLXMA rating (Glycine max (GLXMA) [18]; dose 0.1 kg/ha) | ECHCG rating ([21]; dose 0.03 kg/ha) | ZEAMX rating (Zea mays (ZEAMX) [24]; dose 0.4 kg/ha)

— patent US6852673B2, “Herbicidal pyridine compounds” (BASF Aktiengesellschaft, priority 1998, dated 2005)
